Literature values, collected in article PMC4642890 (Bioorganic & medicinal chemistry letters, 2015).

Tested on: neuropathic pain
Settings: rodent model

Substance | effect on neuropathic pain | opioid-induced tolerance | reward liability
Tyr^1-DAla^2-Gly^3-Phe^4-Met^5-Pro^6-Leu^7-Trp^8-NH-[3’,5’-Bzl(CF3)2] [TY027] | reverse neuropathic pain | no sign of opioid-induce tolerance | no development of reward liability
Tyr^1-DAla^2-Gly^3-Phe^4-Met^5-Pro^6-Leu^7-Trp^8-O-[3’,5’-Bzl(CF3)2] [TY005] | reverse neuropathic pain | no sign of opioid-induce tolerance | no development of reward liability
